This is an account of results in the pKa sets of Baltruschat and Czodrowski (2020).

The pKa is the negative logarithm of the acid dissociation constant. High values mean a weaker acid or stronger base, low ones a stronger acid or weaker base.

The conditions of one data set: acidic group.
Turning to `Nc1nc2ncncc2[nH]1`, the pKa worked out at 9.36. Take `CCOc1ccc(C(=O)O)c(C)c1`: the pKa was 4.54.

Compound `COc1ccc(NC(C)=S)cc1` gave a pKa of 12. The compound `OCc1cccc(O)c1` gave a pKa of 9.83. Same read-out and setting: the same measure for `Cc1c(Cn2cc[nH+]c2)n(C)c2ccc(C(=O)O)cc12`: 4.08. Consider `O=S(=O)([O-])c1c(O)ccc2[nH]ncc12`, for which the pKa is 10.6. For the compound `CCC[Se](=O)O`, the pKa turned out to be 5.25. The same measure, in the same setting: the figure for `Nc1ccc(S(=O)(=O)Nc2ncccc2O)cc1` is 7.6. Still for that read-out and setting: the same measure for `Cc1ccc(C(=O)/C=C/C(=O)O)cc1`: 3.44; for `C[n+]1cccc(CC(=O)c2ccccc2)c1`: 11.

As to `[S-]c1ncnc2nc[nH]c12`, the pKa worked out at 10.9. The same measure, in the same setting: the figure for `O[n+]1ccccc1` is 0.77; for `CCCC[C@H]([NH3+])C(=O)O` it is 2.39; for `CC(=O)C[N+](=O)[O-]` it is 5.1. The compound `N#CCCC(C(=O)O)c1ccccc1` (configuration not stated) yielded a pKa of 3.92.

`CC(=O)ONc1cc(=O)n(C)c(=O)n1C`: the pKa amounted to 7.01. On the same count and under the same terms, the same measure for `CC[NH+](CC)Cc1cc(F)ccc1O`: 8.23; for `Cc1nnc(C)n1O`: 6.5. Compound `CC(C)c1ccc2c(c1)CC[C@H]1[C@](C)(C(=O)O)CCC[C@]21C` came in with a pKa of 5.7. Regarding `CC[NH2+]C(C)C(=O)O` (configuration not stated), the pKa came to 2.22. Still for that read-out and setting: the same measure for `Cc1cnc(C)c(O)c1C=O`: 8.08; for `CCCC(C)C1C(=O)NC(=S)N=C1[O-]` (configuration not stated): 11.4; for `Cc1cc(O)c(=O)ccc1Br`: 6.6. The same measure, in the same setting: the figure for `COc1c(O)ccc2c1C[N+]1(C)CCc3cc4c(cc3[C@@H]1C2)OCO4` (some centres not stated) is 8.45; for `O=S1(=O)C=C(O)c2ccccc21` it is 7.65; for `CC(=O)c1c(C)cc(C)cc1C` it is 10.7.

Compound `Cc1cccc(C(=O)O)c1[N+](=O)[O-]` showed a pKa of 2.91. As to `O=C(O)c1cccc(-c2nnn[nH]2)c1`, the pKa came to 3.74. On the same count and under the same terms, the same measure for `Cc1nc2c(N)cccc2[nH]1`: 12.3; for `C=CCCC(=O)O`: 4.68; for `Nc1ccncn1`: 18.4.

As to `[NH3+]CCCCCCCCC(=O)O`, the pKa amounted to 4.53.

The compound `C[NH+](C)Cc1cc(Cl)cc(C[NH+](C)C)c1O` displayed a pKa of 5.2. `CCN(CC)c1nnn[nH]1` yielded a pKa of 6.33. In turn, `CC(C)(OO)c1ccccc1` displayed a pKa of 12.6. On the same count and under the same terms, the figure for `S=C1NC(=S)C(c2ccccc2)N1` (configuration not stated) is 8.15. As to `Cc1ccc(O)c([N+](=O)[O-])c1`, the pKa turned out to be 7.4. On the same count and under the same terms, the figure for `CCC[n+]1cccc2cc(O)ccc21` is 7.08. `O=C1CC(=O)NC(=S)[N-]1` displayed a pKa of 10.7. With `O=C1C=C(S(=O)(=O)[O-])c2[nH]ncc2/C1=N/O`, the pKa was determined as 7.75. In the case of `O=C([O-])C1(C(=O)O)CCCC1`, the pKa came out at 6.08.

With `C[N+](C)(C)c1ccccc1O`, the pKa amounted to 7.46. Compound `CCOCCn1c(CN2CC[NH+](CCCCn3cc(C(=O)O)cn3)CC2)[nH+]c2ccccc21` came in with a pKa of 3.8. Still for that read-out and setting: the same measure for `O=C1NC(=O)C2(CCOc3ccc(F)cc32)N1` (configuration not stated): 8.3; for `COc1cc(C(=O)O)ccc1C`: 4.13. On the same count and under the same terms, the figure for `CC(=O)NOC(C)=O` is 6.81.

Turning to `CC(C)=NNS(C)(=O)=O`, the pKa worked out at 8.5. On the same count and under the same terms, the same measure for `Oc1cccc2c1-c1c(O)cccc1-2`: 8.16; for `O=C(O)CNC(=O)CNS(=O)(=O)c1ccccc1`: 3.55; for `COc1ccc(NC(=S)c2ccc(Cl)cc2)cc1`: 11.3.

For `COc1ccc2c(c1O)-c1c3c(cc4c1[C@H](C2)N(C)CC4)OCO3`, the pKa stood at 10.1. On the same count and under the same terms, the same measure for `O=C(O)c1ccc(F)cc1`: 4.16; for `[NH3+]C[C@H](O)C(=O)O`: 2.78; for `SCc1ncc[nH]1`: 9.26. On the same count and under the same terms, the figure for `NC(=S)c1ccc([N+](=O)[O-])cc1` is 11.8; for `O=C(O)Cc1nnnn1-c1ccccc1` it is 3.1; for `Cn1nc(-c2ccccc2)cc1O` it is 10.9. Still for that read-out and setting: the same measure for `Cc1cc(C(=O)O)c(C)o1`: 4.64.

Still in this data set, the particulars now being: basic group.
For `C[C@H](N)CCC(=O)[O-]`, the pKa is 10.4. Consider `Nc1nc2ncncc2[nH]1`, for which the pKa stood at 4.68. Same read-out and setting: the figure for `COc1ccc([N+](=O)[O-])cc1C(=O)N[C@@H]1C[C@H]2CC[C@@H](C1)N2Cc1ccccc1` is 8.7; for `Nc1ccnc2c1ncn2CCOCP(=O)(O)O` it is 5.49. Same read-out and setting: the figure for `Cc1[nH+]c2cc(N)ccc2n1C` is 3.38; for `C=CC(C)(C)NC(C)(C)C=C` it is 10.1. As to `O=C([O-])c1ccc2ccccc2n1`, the pKa stood at 4.97. `NCC(N)C[NH3+]`: the pKa was determined as 7.95. The same measure, in the same setting: the figure for `CCCN(CC(C)O)CC(O)CC` (configuration not stated) is 9; for `COc1cccc(CN2CC(O[Si](C)(C)C)C2)c1` it is 7.81; for `CSc1ccc(N)c([N+](=O)[O-])c1` it is -0.28.

In turn, `[S-]c1ncnc2nc[nH]c12` registered a pKa of 7.74. `[O-][n+]1cccc2ccccc21` displayed a pKa of 0.7.

Consider `C[C@H](N)[C@H](C)N`, for which the pKa was 9.84. Still for that read-out and setting: the figure for `C=CC(C)(C)N(C)C(C)(C)C` is 11.3; for `[O-]c1cnc2ccccc2n1` it is 9.1; for `Nc1cc([N+](=O)[O-])c2ccccc2c1` it is 2.62. Same read-out and setting: the same measure for `Nc1ccccc1S(N)(=O)=O`: 1; for `CCCCSCCN`: 8.37. The same measure, in the same setting: the figure for `Cc1cnc(C)c(O)c1C=O` is 4.1; for `CNCCCNC(=O)/C=N/[O-]` it is 10.6. In turn, `CCC1=NCCC1` registered a pKa of 7.91.

In the case of `CCc1ccc(C)nn1`, the pKa stood at 4.17. On the same count and under the same terms, the same measure for `CCSC(C)=N`: 6.9; for `CCCc1ccccc1N`: 4.36; for `CN1CCCCCCN(C)CCCCCC1`: 9.24.

For `C1CCC(C2=NCCC2)CC1`, the pKa is 6.05. `Cc1nc2cc(N)ccc2[nH]1`: the pKa was found to be 6.95. On the same count and under the same terms, the figure for `CCCN(CCC)CC(=O)Nc1c(C)cccc1C` is 7.68. `NCCCC[NH3+]` gave a pKa of 9.36. The same measure, in the same setting: the figure for `O=[N+]([O-])c1ccc([O-])c(CN2CCOCCOCCOCCOCCOCC2)c1` is 9.59; for `Cc1ccc(S(=O)C(C)(C)C)cc1` (configuration not stated) it is -2.2.

For the compound `N[C@@H]1C[C@@H]1[NH3+]`, the pKa was found to be 4.2. On the same count and under the same terms, the same measure for `CSc1cccc2ncccc12`: 4.5. Still for that read-out and setting: the figure for `Cc1nc2c(N)cccc2[nH]1` is 8.1; for `CN1CC[C@]23c4c5ccc(OCc6ccccc6)c4O[C@H]2[C@@H](O)C=C[C@H]3[C@H]1C5` it is 8.07.

As for `NCC(O)c1ccccc1` (configuration not stated), the pKa was 8.94. The compound `OCCNCCO` yielded a pKa of 9.04. On the same count and under the same terms, the figure for `O=C([O-])c1ccc2nc3ccccc3cc2c1` is 5.22; for `O=[N+]([O-])c1ccc(NCO)cc1` it is -0.33. As to `CN(C)c1ncc(Br)s1`, the pKa stood at 3.66. Turning to `Nc1ccncn1`, the pKa turned out to be 5.7. Turning to `Cc1c(C(C)C)c(=O)n(-c2ccccc2)n1C`, the pKa stood at 2.4. With `Cc1ncc2nccnc2n1`, the pKa is 4.87. The compound `CCCCCN(CC(C)O)CC(O)CC` (configuration not stated) gave a pKa of 9.1.

`Cc1ccccc1/C(=N\CCCN(C)C)c1cccc2ccccc12`: the pKa was 8.8. Regarding `Cc1nc(CO)[nH]c1C`, the pKa was 7.88. Take `Nc1cc2ccccc2cc1[N+](=O)[O-]`: the pKa was 1.48. On the same count and under the same terms, the same measure for `CCNCC(=O)[O-]`: 10.2. As to `CCCCCCNc1ccccc1`, the pKa came out at 5.21.

In turn, `Oc1ccccc1CN1CCCNCCC[NH2+]CCC1` had a pKa of 6.64.

For the compound `Nc1nc(N)c2cnn(-c3ccccc3)c2n1`, the pKa worked out at 4.49. On the same count and under the same terms, the figure for `CN(C)CCCCC(=O)Oc1ccccc1` is 10; for `Cc1cnc2c(ccc3cccnc32)c1C` it is 5.62; for `NCCCCCc1ccccc1` it is 10.5. On the same count and under the same terms, the same measure for `S=C1NC(=S)C(c2ccccc2)N1` (configuration not stated): -3.16; for `Brc1cnc2ccccc2c1`: -0.44. The same measure, in the same setting: the figure for `OCCCc1ccccn1` is 5.71; for `Cc1cccc(C(=O)[O-])n1` it is 5.8. In turn, `COC(=O)Cc1ccccc1N` came in with a pKa of 3.71.

On to `CN(C)Cc1cccc(NC(=O)/C=N/[O-])c1`, for which the pKa turned out to be 9.12. Still for that read-out and setting: the same measure for `C1CN(CC2CO2)CCO1` (configuration not stated): 5.88. As for `Cc1cc(N)nc(Nc2ccc(Cl)cc2)n1`, the pKa stood at 6.6. Still for that read-out and setting: the same measure for `[O-]c1ccccc1C1=NCCN1`: 12.6; for `c1ccc(-c2[nH]cc[nH+]2)nc1`: 0.6; for `NCc1nnn[n-]1`: 8.54. The same measure, in the same setting: the figure for `C=C[C@]1(O)C[NH+]2CC[C@H]1C[C@@H]2[C@@H](O)c1ccnc2ccc(OC)cc12` is 4.12; for `O=C1[C@@H]2C[C@@H](CN3CCCC[C@@H]23)[C@H]2CCCCN12` it is 7.7. Compound `COc1ccc(C=O)cc1C(=O)N[C@@H]1C[C@H]2CC[C@@H](C1)N2Cc1ccccc1` came in with a pKa of 8.74. Same read-out and setting: the same measure for `Cc1nc2cc([N+](=O)[O-])ccc2[nH]1`: 5.16; for `COC(=O)C(C)(C)c1c[nH]c(CO)n1`: 6.18. Same read-out and setting: the figure for `C[NH+](C)Cc1cnc2ccc(-c3ccccc3)nn12` is 2.99; for `CN(C)c1ccc2cc3c(ccc4ccccc43)nc2c1` it is 7.31; for `NCCCc1cccnc1` it is 10.1. Turning to `N[C@@H](CC(=O)[O-])C(=O)[O-]`, the pKa came out at 9.54. `Nc1ccc2[nH+]cccc2c1` gave a pKa of 1.63. In the case of `CC(=O)c1ccc([O-])c(CN(C)C)c1`, the pKa was 10. `Nc1nccc2c1ncn2CCOCP(=O)([O-])[O-]`: the pKa came to 7.87. On the same count and under the same terms, the same measure for `Nc1ccc2nc(/C=C/c3ccccc3)ccc2c1`: 5.5. The compound `[O-]c1cc2nc(c1)COCCOCCSCCOCCOC2` showed a pKa of 10.1. In turn, `CC1(C)S[C@H]2C(C(=O)[O-])N=C(CCCC(N)C(=O)[O-])N2C1C(=O)[O-]` (some centres not stated) yielded a pKa of 10.3. In the case of `SCc1ncc[nH]1`, the pKa stood at 6.37. On the same count and under the same terms, the same measure for `CCCC1N=C(N)N=C(Nc2ccc(SC)cc2)N1` (configuration not stated): 10.6. `c1ccc2nccnc2c1` had a pKa of 0.64.
